Data as given in patent US20240083904A1, “ANTAGONISTS OF THE ADENOSINE A2A RECEPTOR” (AdoRx Therapeutics Limited, priority 2020, published 2024).

What was measured:
[1] = target: human Adenosine A2a receptor (Homo sapiens (Human), UniProt P29274); assay: Adenosine receptor TR-FRET binding assay (A2a); details: CHO cell membranes, 100 nM CA200645, Ki from IC50 by Cheng and Prusoff
Method: (§1) All FRET binding experiments were conducted at room temperature in white 384-well plates, in assay binding buffer containing 1× LabMed (Cisbio, France), 100 μg/mL saponin, 1% DMSO and 0.02% pluronic acid. Binding of the fluorescently labelled Adenosine receptor antagonist XAC (CA200645, FRET acceptor) to terbium-labelled A1, A2a, A2b and A3 adenosine receptors (FRET donors) was detected by time-resolved FRET due to the close proximity of the donor and acceptor in a binding event. To investigate the ability of unlabelled test compounds to bind to Adenosine A1, A2a, A2b and A3 receptors, dose response curves were constructed that determined the ability of a range of concentrations to inhibit the binding of 30 nM CA200645 to the A2b receptor and 100 nM CA200645 to the A1, A2a, and A3 receptor.
(§2) Serial dilution (1:3 dilutions) of test compounds in neat DMSO and transfer of a 400 nL sample of test compound into the assay plate was carried out using the Mosquito (TTP Labtech, UK). The compound samples were incubated for 2 hours at room temperature with a fixed concentration of CA200645 defined for each receptor (see above) and CHO cell membranes containing the human Adenosine A1 (0.5 μg/well), A2a (0.3 μg/well), A2b (1 μg/well) or A3 (1 μg/well) receptor in 40 μL of assay buffer. Total and non-specific binding of CA200645 was determined in the absence and presence of 10 μM XAC, respectively. Following 2 hours incubation, the level of CA200645 binding was detected on a Pherastar FSX (BMG Labtech, Germany) using standard TR-FRET settings. The terbium donor was excited with three laser flashes at a wavelength of 337 nm, and donor and acceptor emission was detected at 620 nm and 665 nm wavelengths, respectively. FRET ratios were obtained by multiplying the acceptor/donor ratio value by 10,000. Specific binding was determined by subtracting the non-specific binding FRET ratio from the total binding FRET ratio. Compound IC50 curves were analysed using GraphPad Prism 7.0 (GraphPad, USA) and Ki affinity values were determined from the obtained IC50 values using the method of Cheng and Prusoff.

human PBMCs = assay: CD3/CD28 stimulated IL-2 release NECA reversal assay in human PBMCs; assay type: cell-based; details: PBMC, 1 uM NECA, 24 hours
Method: Blood is drawn from healthy volunteers using sodium citrate as the anticoagulant (0.3% final concentration). After centrifugation of the blood over Histopaque-1077, PBMCs are collected from the Histopaque/plasma interface and washed twice in PBS (300 g for 10 mins at room temp). Cells are plated at 50,000 cells/well in 150 μl RPMI/10% FCS in 96-well cell culture plates that have been precoated with 1 ug/ml CD3 antibody. 50 μl diluted compound mix is added to the cells, to obtain final concentrations of 1 μg/ml CD28 antibody, 1 uM NECA and 0.003-10 μM adenosine receptor antagonist. Assay plates are incubated for 24 hours at 37° C. in a humidified incubator. Culture supernatant is tested for IL-2 levels using the human IL-2 Tissue Culture Kit (Meso Scale Discovery). Data for dose-response curves is calculated as % inhibition with 100% inhibition defined from no agonist control wells (+CD3/28-NECA)

[2] = tested on: pCREB in CD8+ T cells in human whole blood; assay: Measurement of pCREB in CD8+ T cells in human whole blood; assay type: cell-based; details: T-cell, 3 μM NECA, rolipram, FACS
Method: Heparinised human whole blood was pre-incubated at 37° C. with serial dilutions of A2a antagonists for 20 min. and the phosphodiesterase inhibitor rolipram to amplify the pCREB response. The adenosine receptor agonist NECA is then added at a final concentration of 3 μM and following a 60 min incubation the blood is fixed and red blood cells lysed. White blood cells are isolated, permeabilized and stained with directly conjugated fluorescent antibodies to phospho-CREB (Alexa Fluor 488) and CD8 (Alexa Fluor 647) and the level of phospho-CREB in CD8+ T cells is measured by FACS using a BD Accuri C6 Flow Cytometer.

[3] = target: human Adenosine A1 receptor (Homo sapiens (Human), UniProt P30542); assay: Adenosine receptor TR-FRET binding assay (A1); details: CHO cell membranes, 100 nM CA200645, Ki from IC50 by Cheng and Prusoff
human Adenosine A1 receptor, sequence (P30542 whole entry): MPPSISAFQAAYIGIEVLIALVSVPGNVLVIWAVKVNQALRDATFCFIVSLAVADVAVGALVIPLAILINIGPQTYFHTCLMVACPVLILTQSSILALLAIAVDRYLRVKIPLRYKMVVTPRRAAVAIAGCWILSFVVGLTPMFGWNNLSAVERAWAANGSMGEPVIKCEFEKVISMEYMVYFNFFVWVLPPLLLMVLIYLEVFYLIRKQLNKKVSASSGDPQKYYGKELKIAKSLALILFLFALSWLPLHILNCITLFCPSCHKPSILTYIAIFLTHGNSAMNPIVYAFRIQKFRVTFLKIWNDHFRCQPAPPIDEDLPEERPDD
Method: as §1, §2

[4] = target: human Adenosine A2b receptor (Homo sapiens (Human), UniProt P29275); assay: Adenosine receptor TR-FRET binding assay (A2b); details: CHO cell membranes, 30 nM CA200645, Ki from IC50 by Cheng and Prusoff
human Adenosine A2b receptor, sequence (P29275 whole entry): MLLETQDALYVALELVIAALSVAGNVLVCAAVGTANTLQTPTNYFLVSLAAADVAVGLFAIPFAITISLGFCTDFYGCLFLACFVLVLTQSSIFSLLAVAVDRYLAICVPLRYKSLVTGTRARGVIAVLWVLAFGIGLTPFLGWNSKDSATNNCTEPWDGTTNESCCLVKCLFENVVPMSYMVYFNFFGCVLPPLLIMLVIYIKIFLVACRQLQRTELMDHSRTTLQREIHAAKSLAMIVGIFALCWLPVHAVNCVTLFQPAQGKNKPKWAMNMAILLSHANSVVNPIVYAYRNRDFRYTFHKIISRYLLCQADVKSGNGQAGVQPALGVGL
Method: as §1, §2

[5] = target: human Adenosine A3 receptor (Homo sapiens (Human), UniProt P0DMS8); assay: Adenosine receptor TR-FRET binding assay (A3); details: CHO cell membranes, 100 nM CA200645, Ki from IC50 by Cheng and Prusoff
human Adenosine A3 receptor, sequence (P0DMS8 whole entry): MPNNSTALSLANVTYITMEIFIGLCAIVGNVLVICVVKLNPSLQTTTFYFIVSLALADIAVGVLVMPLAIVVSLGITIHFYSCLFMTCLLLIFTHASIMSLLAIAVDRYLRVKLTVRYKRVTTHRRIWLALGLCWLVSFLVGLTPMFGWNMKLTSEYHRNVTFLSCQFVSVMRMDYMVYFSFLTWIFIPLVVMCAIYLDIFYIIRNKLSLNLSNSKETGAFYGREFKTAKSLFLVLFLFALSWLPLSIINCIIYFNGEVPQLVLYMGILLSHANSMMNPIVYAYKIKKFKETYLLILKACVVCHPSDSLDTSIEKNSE
Method: as §1, §2

human Adenosine A2a receptor, sequence (P29274 whole entry): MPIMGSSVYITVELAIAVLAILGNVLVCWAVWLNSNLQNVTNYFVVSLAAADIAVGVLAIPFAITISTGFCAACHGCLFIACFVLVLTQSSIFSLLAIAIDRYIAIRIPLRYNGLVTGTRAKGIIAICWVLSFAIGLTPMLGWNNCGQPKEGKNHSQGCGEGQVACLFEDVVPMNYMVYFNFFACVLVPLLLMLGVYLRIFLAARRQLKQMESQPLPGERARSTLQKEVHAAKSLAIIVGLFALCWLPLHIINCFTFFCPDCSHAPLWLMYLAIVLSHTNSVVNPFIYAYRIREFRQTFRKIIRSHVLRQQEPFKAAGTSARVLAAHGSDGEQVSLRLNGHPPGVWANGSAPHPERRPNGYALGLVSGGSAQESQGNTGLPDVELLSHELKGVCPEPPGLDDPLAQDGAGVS

SMILES	Ki [1]	IC50 (human PBMCs)	IC50 [2]	Ki [3]	Ki [4]	Ki [5]
Cc1cc(-c2c(-c3cccc(C#N)c3)nc3ccc(C(=O)N[C@@H](C)C(C)(C)O)nn23)cc(Cl)n1 [Example 2.9, 3-(2-Chloro-6-methyl-4-pyridyl)-2-(3-cyanophenyl)-N-[(1S)-2-hydroxy-1,2-dimethyl-propyl]imidazo[1,2-b]pyridazine-6-carboxamide]	0.2 nM	5.3 nM	168 nM	96 nM	20 nM	> 1000 nM
COc1cc(-c2c(-c3cccc(C#N)c3)nc3ccc(C(=O)NCC(C)(C)O)nn23)cc(C)n1 [Example 2.4, 2-(3-Cyanophenyl)-N-(2-hydroxy-2-methyl-propyl)-3-(2-methoxy-6-methyl-4-pyridyl)imidazo[1,2-b]pyridazine-6-carboxamide]	2.3 nM	13.5 nM	2040 nM	286 nM	156 nM	> 1000 nM
Cc1cc(-c2c(-c3cccc(C#N)c3)nc3ccc(C(=O)NCC(C)(C)O)nn23)cc(C(F)(F)F)n1 [Example 2.3, 2-(3-Cyanophenyl)-N-(2-hydroxy-2-methyl-propyl)-3-[2-methyl-6-(trifluoromethyl)-4-pyridyl]imidazo[1,2-b]pyridazine-6-carboxamide]	0.46 nM	7.3 nM	282 nM	95 nM	18 nM	> 1000 nM
Cc1cc(-c2c(-c3cccc(C#N)c3)nc3ccc(C(=O)N[C@H](C)C(C)(C)O)nn23)cc(C(F)(F)F)n1 [Example 2.7, 2-(3-Cyanophenyl)-N-[(1R)-2-hydroxy-1,2-dimethyl-propyl]-3-[2-methyl-6-(trifluoromethyl)-4-pyridyl]imidazo[1,2-b]pyridazine-6-carboxamide]	0.34 nM	10.5 nM	499 nM	324 nM	79 nM	> 1000 nM
COc1cc(-c2c(-c3cccc(C#N)c3)nc3ccc(C(=O)N[C@@H](C)C(C)(C)O)nn23)cc(C)n1 [Example 2.8, 2-(3-Cyanophenyl)-N-[(1S)-2-hydroxy-1,2-dimethyl-propyl]-3-(2-methoxy-6-methyl-4-pyridyl)imidazo[1,2-b]pyridazine-6-carboxamide]	0.19 nM	4.6 nM	472 nM	243 nM	285 nM	> 1000 nM
Cc1cc(-c2c(-c3cccc(C#N)c3)nc3ccc(C(=O)NCC(C)(C)O)nn23)cc(Cl)n1 [Example 2.2, 3-(2-Chloro-6-methyl-4-pyridyl)-2-(3-cyanophenyl)-N-(2-hydroxy-2-methyl-propyl)imidazo[1,2-b]pyridazine-6-carboxamide]	0.5 nM	39 nM	496 nM	363 nM	27 nM	> 1000 nM
Cc1cc(-c2c(-c3cccc(C#N)c3)nc3ccc(C(=O)N[C@@H](C)C(C)(C)O)nn23)cc(CO)n1 [Example 6, 2-(3-Cyanophenyl)-N-[(1S)-2-hydroxy-1,2-dimethyl-propyl]-3-[2-(hydroxymethyl)-6-methyl-4-pyridyl]imidazo[1,2-b]pyridazine-6-carboxamide]	0.68 nM	–	–	120 nM	49 nM	> 1000 nM
CC(C)(O)CNC(=O)c1ccc2nc(-c3cccc(C#N)c3)c(Br)n2n1 [Example 1, 3-Bromo-2-(3-cyanophenyl)-N-(2-hydroxy-2-methyl-propyl)imidazo[1,2-b]pyridazine-6-carboxamide]	10.9 nM	–	–	4000 nM	500 nM	> 1000 nM
Cc1cc(-c2c(-c3cccc(C#N)c3)nc3ccc(C(=O)N[C@@H](C)C(C)(C)O)nn23)cc(C)n1 [Example 3, 2-(3-Cyanophenyl)-3-(2,6-dimethyl-4-pyridyl)-N-[(1S)-2-hydroxy-1,2-dimethyl-propyl]imidazo[1,2-b]pyridazine-6-carboxamide]	0.16 nM	1.7 nM	61 nM	71 nM	31 nM	> 1000 nM
CC(=O)c1cc(-c2c(-c3cccc(C#N)c3)nc3ccc(C(=O)NCC(C)(C)O)nn23)cc(C)n1 [Example 2, 3-(2-Acetyl-6-methyl-4-pyridyl)-2-(3-cyanophenyl)-N-(2-hydroxy-2-methyl-propyl)imidazo[1,2-b]pyridazine-6-carboxamide]	3.9 nM	–	–	1830 nM	1580 nM	> 1000 nM
Cc1cc(-c2c(-c3cccc(C#N)c3)nc3ccc(C(=O)NCC(C)(C)O)nn23)cc(C)n1 [Example 2.1, 2-(3-Cyanophenyl)-3-(2,6-dimethyl-4-pyridyl)-N-(2-hydroxy-2-methyl-propyl)imidazo[1,2-b]pyridazine-6-carboxamide]	0.79 nM	13.8 nM	122 nM	667 nM	212 nM	> 1000 nM
Cc1cc(-c2c(-c3cccc(C#N)c3)nc3ccc(C(=O)N[C@@H](C)C(C)(C)O)nn23)cc(C(F)F)n1 [Example 2.5, 2-(3-Cyanophenyl)-3-[2-(difluoromethyl)-6-methyl-4-pyridyl]-N-[(1S)-2-hydroxy-1,2-dimethyl-propyl]imidazo[1,2-b]pyridazine-6-carboxamide]	0.32 nM	1.1 nM	105 nM	78 nM	34 nM	> 1000 nM
Cc1cc(-c2c(-c3cccc(C#N)c3)nc3ccc(C(=O)N[C@@H](C)C(C)(C)O)nn23)cc(C(F)(F)F)n1 [Example 2.6, 2-(3-Cyanophenyl)-N-[(1S)-2-hydroxy-1,2-dimethyl-propyl]-3-[2-methyl-6-(trifluoromethyl)-4-pyridyl]imidazo[1,2-b]pyridazine-6-carboxamide]	0.17 nM	0.6 nM	58 nM	30 nM	18 nM	> 1000 nM
